Experimental data: ChEMBL document CHEMBL1143710, “Synthesis, antifungal and antimicrobial activity of alkylphospholipids” (Bioorg Med Chem, 2007)
≈ marks a conversion by molar mass, not a printed value. Calls of active or inactive are those of the source. No cut-off for these calls is given here.

Experiments:
Cryptococcus neoformans = assay: Antifungal activity against Cryptococcus neoformans ATCC 90112; format: functional
[1] = target: T1, Phospholipase B (Cryptococcus neoformans) (UniProt Q9P8P2); assay: Inhibition of phospholipase B activity of Cryptococcus neoformans var. grubi H99 secreted PLB1 by radiometric assay method
T1 sequence (whole entry): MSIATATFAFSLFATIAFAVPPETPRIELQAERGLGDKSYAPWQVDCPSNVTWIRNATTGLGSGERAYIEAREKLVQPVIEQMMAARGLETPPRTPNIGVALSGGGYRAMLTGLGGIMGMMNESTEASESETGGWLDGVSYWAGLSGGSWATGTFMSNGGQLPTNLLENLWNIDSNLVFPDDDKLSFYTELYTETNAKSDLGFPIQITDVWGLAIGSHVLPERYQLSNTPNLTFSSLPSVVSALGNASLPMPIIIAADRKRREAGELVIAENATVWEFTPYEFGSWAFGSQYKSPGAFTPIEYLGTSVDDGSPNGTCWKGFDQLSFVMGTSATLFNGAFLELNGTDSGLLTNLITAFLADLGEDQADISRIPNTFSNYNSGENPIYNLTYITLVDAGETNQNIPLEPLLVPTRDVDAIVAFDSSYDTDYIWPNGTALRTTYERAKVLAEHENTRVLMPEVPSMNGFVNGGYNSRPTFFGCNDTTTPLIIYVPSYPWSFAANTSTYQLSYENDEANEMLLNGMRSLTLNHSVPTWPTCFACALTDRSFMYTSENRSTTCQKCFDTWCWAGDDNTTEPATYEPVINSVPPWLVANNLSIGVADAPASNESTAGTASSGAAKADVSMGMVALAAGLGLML

Candida albicans = assay: Antifungal activity against Candida albicans ATCC 10231; format: functional
[2] = target: T1, Phospholipase B (Cryptococcus neoformans); assay: Inhibition of […] activity of Cryptococcus neoformans var. grubi H99 secreted PLB1 at 25 uM by radiometric assay method
[3] = Toxicity assessed as haemolytic activity against human erythrocytes at 175 uM; format: cell-based, Erythrocyte; settings: read-out: Activity
[4] = Toxicity assessed as haemolytic activity against human erythrocytes at 88 uM; format: cell-based, Erythrocyte; settings: read-out: Activity
[5] = Toxicity assessed as haemolytic activity against human erythrocytes at 44 uM; format: cell-based, Erythrocyte; settings: read-out: Activity
[6] = Toxicity assessed as haemolytic activity against human erythrocytes at 17.5 uM; format: cell-based, Erythrocyte; settings: read-out: Activity
[7] = Toxicity assessed as haemolytic activity against human erythrocytes at 3.5 uM; format: cell-based, Erythrocyte; settings: read-out: Activity
Escherichia coli = assay: Antibacterial activity against Escherichia coli ATCC 25922 after 24 hrs; format: functional; settings: ATCC 25922, 24 h
Staphylococcus aureus [8] = assay: Antibacterial activity against Staphylococcus aureus ATCC 25923 after 24 hrs; format: functional; settings: ATCC 25923, 24 h
Staphylococcus aureus [9] = assay: Antibacterial activity against methicillin-resistant Staphylococcus aureus after 24 hrs; format: functional
Enterococcus = assay: Antibacterial activity against vancomycin-resistant Enterococcus ATCC 51299 after 24 hrs; format: functional; settings: ATCC 51299, 24 h
[10] = Toxicity assessed as haemolytic activity against human erythrocytes at 350 uM; format: cell-based, Erythrocyte; settings: read-out: Activity
[11] = target: T1, Phospholipase B (Cryptococcus neoformans); assay: Inhibition of […] activity of Cryptococcus neoformans var. grubi H99 secreted PLB1 at 250 uM by radiometric assay method
[12] = target: T1, Phospholipase B (Cryptococcus neoformans); assay: Inhibition of lysophosphatidic acid acyltransferase activity of Cryptococcus neoformans var. grubi H99 secreted PLB1 at 250 uM by radiometric assay method

Row | Structure (SMILES) | MIC (Cryptococcus neoformans) | Activity [1] | MIC (Candida albicans) | Activity [2] | hemolysis at 175 µM [3] | hemolysis at 88 µM [4] | hemolysis at 44 µM [5] | hemolysis at 17.5 µM [6] | hemolysis at 3.5 µM [7] | MIC (Escherichia coli) | MIC (Staphylococcus aureus [8]) | MIC (Staphylococcus aureus [9]) | MIC (Enterococcus) | hemolysis at 350 µM [10] | Activity [11] | Activity [12]
1 | CCCCCCCCCNC(=O)CCCCCOP(=O)([O-])OCC[N+](C)(C)C | > 350 µM | inactive | > 350 µM | inactive | 0% | 0% | 0% | 0% | 0% | > 350 µM | > 350 µM | > 350 µM | > 350 µM |  |  | 
2 | CCCCCCCCCCCCCCCCCCOCC(O)COP(=O)([O-])OCC[N+](C)(C)C (stereo not drawn) | 88 µM (≈ 44.9 µg/mL) |  | > 350 µM |  | 100% | 86% | 10% | 0% | 0% | > 350 µM | 22 µM (≈ 11.2 µg/mL) | 11 µM (≈ 5.61 µg/mL) | 11 µM (≈ 5.61 µg/mL) | 100% |  | 
3 | CCCCCCCC/C=C/CCCCCCCCOP(=O)([O-])OCC[N+](C)(C)C [ELAIDYLPHOSPHOCHOLINE] | 2.75 µM (≈ 1.19 µg/mL) |  | 2.75 µM (≈ 1.19 µg/mL) |  | 100% | 50% | 0% | 0% | 0% | > 350 µM | 22 µM (≈ 9.54 µg/mL) | 22 µM (≈ 9.54 µg/mL) | 22 µM (≈ 9.54 µg/mL) | 100% |  | 
4 | CCCCCCCC/C=C\CCCCCCCCCCCCOP(=O)([O-])OCC[N+](C)(C)C [ERUFOSINE] | 22 µM (≈ 10.8 µg/mL) |  | 44 µM (≈ 21.5 µg/mL) |  | 90% | 15% | 0% | 0% | 0% | > 350 µM | > 350 µM | 22 µM (≈ 10.8 µg/mL) | 11 µM (≈ 5.39 µg/mL) | 100% |  | 
5 | CCCCCCCCCCCCCCCCCC(=O)NCC(COP(=O)([O-])OCC[N+](C)(C)C)OC (stereo not drawn) | 22 µM (≈ 11.8 µg/mL) |  | 5.5 µM (≈ 2.95 µg/mL) |  | 100% | 56% | 5% | 0% | 0% | > 350 µM | 44 µM (≈ 23.6 µg/mL) | 11 µM (≈ 5.9 µg/mL) | 22 µM (≈ 11.8 µg/mL) | 100% |  | 
6 | C[N+](C)(C)CCOP(=O)([O-])OCCCCCC(=O)NC12CC3CC(CC(C3)C1)C2 | > 350 µM |  | > 350 µM |  |  |  |  |  |  |  |  |  |  |  |  | 
7 | CCCCC(CC)CNC(=O)CCCCCOP(=O)([O-])OCC[N+](C)(C)C (stereo not drawn) | > 350 µM |  | > 350 µM |  | 0% | 0% | 0% | 0% | 0% | > 350 µM | > 350 µM | > 350 µM | > 350 µM |  |  | 
8 | CCCCCCCCCCCCCCCCCCOP(=O)([O-])OCC[P+](C)(C)C | 2.75 µM (≈ 1.24 µg/mL) |  | 2.75 µM (≈ 1.24 µg/mL) | inactive | 100% | 97% | 40% | 2% | 0% |  |  |  |  |  | Active | Active
9 | CCCCCCCCCCCCCCCCCCOP(=O)([O-])OCC[N+](C)(C)C [OCTADECYLPHOSPHONOCHOLINE] | 1.4 µM (≈ 0.61 µg/mL) |  | 1.4 µM (≈ 0.61 µg/mL) | inactive | 100% | 92% | 60% | 0% | 0% | > 350 µM | 22 µM (≈ 9.58 µg/mL) | 22 µM (≈ 9.58 µg/mL) |  | 100% | Active | Active
10 | CC(C)[C@H](NC(=O)CCCCCOP(=O)([O-])OCC[N+](C)(C)C)C(N)=O | > 350 µM |  | > 350 µM |  | 0% | 0% | 0% | 0% | 0% |  |  |  |  | 0% |  | 
11 | C[C@@H]1[C@H](O)[C@@H](C)/C=C/C=C/C=C/C=C/C=C/C=C/C=C/[C@H](O[C@@H]2O[C@H](C)[C@@H](O)[C@H](N)[C@@H]2O)C[C@@H]2O[C@](O)(C[C@@H](O)C[C@@H](O)[C@H](O)CC[C@@H](O)C[C@@H](O)CC(=O)O[C@H]1C)C[C@H](O)[C@H]2C(=O)O [AMPHOTERICIN B] | 0.54 µM (≈ 0.499 µg/mL) |  | 0.54 µM (≈ 0.499 µg/mL) |  |  |  |  |  |  |  |  |  |  |  |  | 
12 | CCCCCCCCCOC(=O)CCCCCOP(=O)([O-])OCC[N+](C)(C)C | 175 µM (≈ 74.1 µg/mL) |  | > 350 µM |  | 0% | 0% | 0% | 0% | 0% |  |  |  |  |  |  | 
13 | CN[C@H](CC(C)C)C(=O)N[C@H]1C(=O)N[C@@H](CC(N)=O)C(=O)N[C@H]2C(=O)N[C@H]3C(=O)N[C@H](C(=O)N[C@H](C(=O)O)c4cc(O)cc(O)c4-c4cc3ccc4O)[C@H](O)c3ccc(c(Cl)c3)Oc3cc2cc(c3O[C@@H]2O[C@H](CO)[C@@H](O)[C@H](O)[C@H]2O[C@H]2C[C@](C)(N)[C@H](O)[C@H](C)O2)Oc2ccc(cc2Cl)[C@H]1O [VANCOMYCIN] |  |  |  |  |  |  |  |  |  |  |  |  | 0.7 µM (≈ 1.01 µg/mL) |  |  | 
14 | CCCCCCCCCCCCCCCCCCOCC(COP(=O)([O-])OCC[N+](C)(C)C)OC (stereo not drawn) [EDELFOSINE] | > 350 µM |  | 5.5 µM (≈ 2.88 µg/mL) |  | 100% | 83% | 13% | 0% | 0% | > 350 µM | 44 µM (≈ 23 µg/mL) | 11 µM (≈ 5.76 µg/mL) |  | 100% |  | 
15 | CC1(C)S[C@@H]2[C@H](NC(=O)[C@H](N)c3ccc(O)cc3)C(=O)N2[C@H]1C(=O)O [AMOXICILLIN] |  |  |  |  |  |  |  |  |  | 22 µM (≈ 8.04 µg/mL) | 0.7 µM (≈ 0.256 µg/mL) |  |  |  |  | 
16 | CCCCCCCCCCCCOP(=O)([O-])OCC[N+](C)(C)C | 175 µM (≈ 61.5 µg/mL) | inactive | 350 µM (≈ 123 µg/mL) | inactive | 0% | 0% | 0% | 0% | 0% |  |  |  |  |  |  | 
